Key:
[1] = system: Ppargc1a pathway in the brain
Method: To induce symptoms of PD, MPTP (20 mg/kg) was administered intraperitoneally in sterile PBS 4 times at 2-hour intervals on day 1. […] Log-rank test was used for statistical analysis.
Ppargc1a, an inducer of mitochondrial biogenesis, is widely expressed in cells throughout the body.
For gene expression studies, animals were sacrificed on Day 4, 24 hours after the 3rd oral dosage of ZLN005, and PBS-perfused brain tissues were processed for RNA isolation, cDNA synthesis, and real-time quantitative PCR (Invitrogen). […] Unpaired t-tests were used for statistical analyses.

[2] = system: ALS transgenic mice; assay: Survival of ALS transgenic animals; type: in vivo
Method: ALS transgenic mice were orally treated 3 times a week with 0.5% methylcellulose or ZLN005 (Sigma) at 25 mg/kg in 0.5% methylcellulose, starting at 5, 10 and 15 weeks of age.
Survival of ALS-Ctrl (n=18) and ALS-ZLN mice (n=8) were monitored until all animals succumbed. […] Log-rank test was used for statistical analysis.

[3] = system: AD transgenic animals; assay: Nest building in 5XFAD AD transgenic animals; type: in vivo, mice; settings: 25 mg/kg orally 3 times a week for 4 weeks, 7 weeks of age, vs 5XFAD-Ctrl
Method: As described in Example 7, nest-building skill is one of the most reliable measurements of motor function. In this test, AD transgenic animals were orally treated 3 times a week for 4 weeks with 0.5% methylcellulose or ZLN005 (Sigma) at 25 mg/kg in 0.5% methylcellulose, starting at 3 weeks of age. At 7 weeks of age, animals were given cotton pads and the amount of cotton that was shredded over a 24-hour period was measured. […] Unpaired t-test was used for statistical analysis.

[4] = system: CD115+CD11b+ blood monocytes; assay: Blood monocyte frequency in 5XFAD AD transgenic animals; type: in vivo, mice; settings: 25 mg/kg orally 3 times a week for 4 weeks, 7 weeks of age
Method: AD transgenic animals were orally treated 3 times a week for 4 weeks with 0.5% methylcellulose or ZLN005 (Sigma) at 25 mg/kg in 0.5% methylcellulose, starting at 3 weeks of age. For measuring the frequency of CD115+CD11b+ blood monocytes, 5[…]=5), 5XFAD-Ctrl (n=4), and WT animals (n=4) were sacrificed at 7 weeks of age. The results are summarized in FIG. 14; Y-axis represents % of total circulating monocytes among circulating immune cells. […] ANOVA was used for statistical analysis.

[5] = system: brain perivascular macrophages; assay: 2-NBDG glucose uptake in brain perivascular macrophages of ALS transgenic animals; type: in vivo, mice; settings: 25 mg/kg orally 3 times a week for 8 weeks, 13 weeks of age
Method: ALS transgenic animals were orally treated 3 times a week for 8 weeks with 0.5% methylcellulose or ZLN005 (Sigma) at 25 mg/kg in 0.5% methylcellulose, starting at 5 weeks of age. For measuring brain perivascular macrophages, ALS-Ctrl (n=8), ALS-ZLN (n=8), and WT animal (n=12) were sacrificed at 13 weeks of age. PBS-perfused brain tissues of sacrificed animals were digested with Collagenase IV and processed for flow cytometry. Brain perivascular macrophages were stained with 2-NBDG, the fluorescent glucose analog, to measure glucose uptake for flow cytometric acquisition (LSRII, BD) and analysis (FlowJo). The results are summarized in FIG. 20; Y-axis represents % of brain perivascular macrophages that have taken up the glucose analog, 2-NBDG. […] ANOVA was used for statistical analysis.

[6] = system: microglia; assay: Ex vivo TNF-α production by microglia from MPTP-treated FF and Cre animals; type: in vivo, mice; settings: 2-hour ex vivo assay, Day 4
Method: Animals with microglia-specific deletion of Ppargc1a were generated by crossing mice harboring the foxed allele of Ppargc1a (Ppargc1a^LoxP/LoxP) with those expressing Tamoxifen inducible Cre recombinase under the control of Cx3cr1 promoter (Cx3cr1^CreER). To induce Cre-mediated deletion of Ppargc1a in Cx3cr1 expressing cells, Tamoxifen (Sigma) in 200 μl corn oil (50 mg/ml, Sigma) was administered to 3 weeks old (Ppargc1a^LoxP/LoxPCx3cr1^CreER) mice twice at 48-hour intervals (Wolf et al Front Cell Neurosci 2013, 18;7:26. doi: 10.3389/fnce1.2013.00026). Littermates carrying the foxed allele of Ppargc1a alleles but lacking expression of Cre recombinase (Ppargc1a^LoxP/LoxP) were used as controls. Animals were rested for another 5-6 weeks before MPTP was administered. Animals with microglia-specific deletion of Ppargc1a and controls were generated as described in Example 1. […] PBS-perfused brain tissues of sacrificed animals were digested with Collagenase IV and isolated by flow cytometry. For measuring microglial production of TNF-α, MPTP-ZLN (n=5), MPTP-Ctrl (n=10) and Veh (n=6) animals were sacrificed. Isolated microglia were subjected to a 2-hour ex vivo TNF-α production assay. Supernatant samples were collected for TNF-α measurement with CBA technology (BD). […] Unpaired t-tests were used for statistical analyses.

[7] = system: HD transgenic mice; assay: Wheel-running test in HD transgenic animals (R6/2); type: in vivo; settings: HD transgenic (R6/2); 25 mg/kg orally 3 times a week for 4 weeks from 6 weeks of age; constant speed 5 rpm
Method: The wheel-running test in this example was performed similarly to that described in Example 8. HD transgenic animals (R6/2) were purchased from Jackson Laboratories. […] HD transgenic mice were orally treated 3 times a week for 4 weeks with either 0.5% methylcellulose (n=8) or ZLN005 (Sigma) at 25 mg/kg in 0.5% methylcellulose (n=7), starting at 6 weeks of age. Subsequently, at 10 weeks of age, these mice were subjected to 2 weeks of training on a treadmill at a constant speed of 5 rpm (rotations per minute). After the training, mice were tested for motor performance at a constant speed of 5 rpm. […] Unpaired t-test was used for statistical analysis.

In the case of `CC(C)(C)c1ccc(-c2nc3ccccc3[nH]2)cc1` [ZLN005, 2-(4-tert-butylphenyl)-1H-benzimidazole], the “expression of genes involved in Ppargc1a signaling (Pgc1a), mitochondrial genes (Tfam, Nrf2, Ucp3) and anti-oxidative stress genes (Ant, Sod1, Sod2) in the brain” value ([1]; MPTP-treated animals, 25 mg/kg orally once a day for 3 days, Day 4) is reported as “increases expression of genes”, the “upregulation of tyrosine hydroxylase (Th)” value ([1]; brain of MPTP-treated animals, 25 mg/kg orally once a day for 3 days, Day 4) is reported as 15% and the blood-brain barrier penetration ([1]; mouse, in vivo, po, 25 mg/kg) is reported as “penetrated the blood-brain barrier”. For the same molecule, the “onset of hind limb paralysis” value ([2]; ALS transgenic mice) was “delayed”, the mean survival ([2]; ALS transgenic, 25 mg/kg orally 3 times a week starting at 5 or 10 weeks of age, p <0.05 vs ALS-Ctrl) was 131 to 132 days and the “nest building, amount of cotton shredded over 24 hours” value [3] was “significantly increased the amount of cotton shredded”. The “percentage of monocytes among circulating immune cells” value [4] was “decreased”, the “glucose uptake (2-NBDG) in brain perivascular macrophages” value [5] was “decreased” and the “TNF-α production in microglia” value ([6]; MPTP-treated Cre animals (microglial Ppargc1a deletion)) was “failed to exert its anti-inflammatory effects”. The “TNF-α production in microglia” value ([6]; MPTP-treated FF animals) was “suppressed TNF-α production” and the latency to fall [7] was 110 s.

Source: patent publication US10966962B2, “Method for treating neurodegenerative diseases” (THE BOARD OF TRUSTEES OF THE LELAND STANFORD JUNIOR …, priority 2014, dated 2021)
